Source: patent US20110009616A1, “AGENT FOR PREVENTING ARTERIOSCLEROSIS” (priority 2006, published 2011)
Like-named read-outs stand apart in the source and are kept apart here.

What was measured:
[1] = test system: caveola transport pathway; test: Uptake of CTB, transport marker of caveola pathway, into COS-1 cells (Example 7); format: cell-based, African green monkey; settings: FIG. 6
[2] = test system: normal bovine aortic endothelial cell (BAEC); test: DiI-OxLDL uptake into normal bovine aortic endothelial cells (Example 7); format: cell-based; settings: FIG. 6
[3] = human; Non-patent Document 15; cited from earlier work
[4] = target: bLOX-1 (Bos taurus, UniProt P79391); test: Plate assay: binding of oxidized LDL to recombinant bLOX-1 (Test Example 1); set-up: 6xHis (N); made in house; host or cells: E. coli; species or system bovine
Procedure: A LOX-1 antagonist activity of the agent for preventing arteriosclerosis obtained in the above-mentioned Example was evaluated on a LOX-1 binding inhibition rate to oxidized LDL using a recombinant LOX-1 protein obtained from E. coli.
As for the recombinant LOX-1, in cDNA of LOX-1 derived from bovine (bLOX-1) or derived from human (hLOX-1), a sequence to the C-terminal removing a transmembrane region was inserted into a pQE30 vector having a 6-histidine tag sequence (6×His) at the N-terminal (manufactured by Qiagen) so as to have a sequence aligned to a translation frame. The vector was transformed into E. coli able to be controlled by T5 promoter and the expression of each LOX-1 was induced under induction of 1 m M of isopropyl-1-thio-β-D-[…] (IPTG). After the induction of each expression at 37° C. for 3 hours, since the recombinant LOX-1 was obtained from an insoluble fraction, E. coli was lysed in a buffer containing 6 M guanidine hydrochloride and purified by affinity column chromatography using a Ni-NTA agarose column (manufactured by Qiagen) as the marker of 6×His (solvent: phosphoric acid buffer). Furthermore, each of the elution fractions containing LOX-1 was dialyzed in a 20 mM tris buffer (pH 9.0) and a 8M urea containing buffer, applied to a HiTrap Q column, an anion exchanger, (manufactured by Amersham), and eluted and purified with a linear concentration gradient of NaCl. Each of the fractions containing LOX-1 obtained above was reduced in a buffer containing excess amount of DTT (dithiothreitol), and then intramolecular S-S bonds were unwinded by a redox system using a mixture of oxidized […] low molecular thiol compounds. Each LOX-1 obtained above has a binding ability to the oxidized LDL and will be used as a LOX-1 standard for the following plate assays.
The plate assay was carried out using MaxiSorp Immuno Plate (96-well type, manufactured by NUNC). Each LOX-1 purified above was prepared with a PBS buffer so as to be 5 μg/mL, and 100 μL of the solution was applied to each well. After leaving at 4° C. overnight, each well was washed with 400 μL of a PBS buffer twice (400 μL×2) and 300 μL of a PBS buffer containing 25% BlockAce (manufactured by Dainippon Sumitomo Pharma Co., Ltd.) was applied to each well. After leaving at 4° C. overnight, each well was washed with 400 μL of a PBS buffer twice (400 μL×2), a solution of ethyl pheophorbide a was prepared with a PBS buffer containing 1% bovine serum albumin (BSA) so as to have an appropriate dilution rate, and 100 μL of the solution was applied to each well. After leaving at 4° C. overnight, each well was washed with 400 μL of a PBS buffer three times (400 μL×3), a solution of oxidized LDL was prepared with a PBS buffer so as to be 5 μg/mL, and 100 μL of the solution was applied to eachr well. After leaving at 4° C. overnight, each well was washed with 400 μL of a PBS buffer three times (400 μL×3), a horseradish peroxidase-conjugated anti-apolipoprotein B antibody (manufactured by The Binding Site) was diluted 1000 times with a PBS buffer, and 100 μL of the solution was applied to each well. After leaving at room temperature for 2 hours, each well was washed with 400 μL of a PBS buffer five times (400 μL×5), and 100 μL of a 3,3′,5,5′-tetramethylbenzidine (TMB) peroxidase-enzyme immunoassay (EIA)-substrate-kit reagent (manufactured by Bio-Rad) was applied to each well. After an appropriate reaction period, 50 μL of 2M H2SO4 was applied to each well to stop the reaction. Finally, a LOX-1 antagonist activity (an oxidized LDL binding inhibition rate to LOX-1) was determined by detection at 450 nm.

[5] = test system: smooth muscle cells; test: Oxidized LDL uptake into smooth muscle cells, IN Cell Analyzer (Example 8); format: cell-based; settings: FIG. 7
Procedure: As for the compounds in Examples 1 and 2 and Comparative Example 6, the abilities to suppress the oxidized LDL uptake into the smooth muscle cells were evaluated in a similar method to Example 6.
The smooth muscle cells were prepared to 1×10^5 cells/mL and seeded into a 96-well plate. After cultivating for two days, the cells were treated by each inhibitor in a similar method to Example 6. After the treatment of each inhibitor, the cells were washed with PBS three times and fixed with a 10% formalin solution at room temperature in the dark for 10 minutes. The fixed cells were washed with ultrapure water twice and the nuclei were dyed with DAPI. These cells were analyzed with “IN Cell Analyzer” (manufactured by GE Healthcare Bio-Sciences KK), and the uptake number of Dil-labeled oxidized LDL into the smooth muscle cells was divided by the number of nuclei. Furthermore, 4 fields of view per well were measured and the measurements were n=3 per treatment.

[6] = rats, intravenous injection; Non-patent Document 17; cited from earlier work
[7] = rat; Non-patent Document 16; cited from earlier work

Sequence of bLOX-1 (P79391 57-270 limits assumed): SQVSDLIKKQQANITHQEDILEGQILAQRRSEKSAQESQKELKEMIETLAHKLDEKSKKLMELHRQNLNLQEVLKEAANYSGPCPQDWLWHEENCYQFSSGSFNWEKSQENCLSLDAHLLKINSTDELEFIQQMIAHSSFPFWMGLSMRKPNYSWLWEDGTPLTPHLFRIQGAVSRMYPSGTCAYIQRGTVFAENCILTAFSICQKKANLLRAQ

Structure (SMILES): C=Cc1c(C)c2cc3nc(c4c5[nH]c(cc6nc(cc1[nH]2)C(C)=C6CC)c(C)c5C(=O)[C@@H]4C(=O)OC)[C@@H](CCC(=O)O)[C@@H]3C [pheophorbide a]
- inhibition of caveola transport pathway (CTB uptake) [1]: inhibits the caveola transport pathway significantly
- inhibitory activity on DiI-OxLDL uptake, compared with anti-LOX-1 antibody [2]: stronger than that of the anti-LOX-1 antibody
- ingestion causing photosensitivity disease [3]: ≥ 500 mg/day
- IC50 ([4]; concentration dependence, FIG. 2): ~100 nM
- inhibition activity on binding of oxidized LDL to bLOX-1 (ranking among actives) ([4]; final concentration of 16 μM, FIG. 1): high inhibition activities
- binding rate of oxidized LDL to bLOX-1 (inhibition of binding) ([4]; final concentration of 16 μM, FIG. 1, control without compounds = 100): inhibit the binding significantly
- ability to suppress oxidized LDL uptake in smooth muscle cells [5]: very strong ability to suppress the uptake
- suppression of oxidized LDL uptake in smooth muscle cells, compared with anti-LOX-1 antibody [5]: stronger suppression effect than that of the anti-LOX-1 antibody
- accumulation to skin [6]: low
- main accumulation target [6]: reticuloendothelial system
- ingestion causing photosensitivity disease [7]: ≥ 220 mg/kg
